Laboratory results as given in patent publication US20250129021A1, “SMALL MOLECULE PROTEIN SYNTHESIS MODULATORS” (Interdict Bio, Inc., priority 2023, published 2025).
Read-outs that look alike come from different tables or passages of the source.

Key:
[1] = tested on: BCL-2; test: In vitro transcription-translation (IVTT) assay, BCL-2 reporter; type: biochemical; settings: HeLa S3 lysate, sfGFP/mCherry ratio, 2 hrs at 30° C.
Outline: (§1)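 Reporter: mCherry, P2A, then 3×FLAG-target peptide-sfGFP fusion, IRES-initiated; HeLa S3 lysate IVTT; cpd dilutions 30 μM−0.1 μM half-log in 100% DMSO (dilution-plate conc); DNA added last; 2 h, 30° C; PBS quench.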

[2] = tested on: MYC; test: In vitro transcription-translation (IVTT) assay, MYC reporter; type: biochemical; settings: HeLa S3 lysate, 2 hrs at 30° C.
Outline: as §1

[3] = tested on: CCND1; test: In vitro transcription-translation (IVTT) assay, CCND1 reporter; type: biochemical; settings: HeLa S3 lysate, sfGFP/mCherry ratio
Outline: as §1

[4] = tested on: MCL-1; test: In vitro transcription-translation (IVTT) assay, MCL-1 reporter; type: biochemical; settings: HeLa S3 lysate, sfGFP/mCherry ratio
Outline: as §1

[5] = tested on: KRAS G12D; test: In vitro transcription-translation (IVTT) assay, KRAS G12D reporter; type: biochemical; settings: HeLa S3 lysate, sfGFP/mCherry ratio, 2 hrs at 30° C.
Outline: as §1

[6] = tested on: HEK 293T; test: Cell viability (CellTiter-Fluor), HEK 293T; type: cell-based; settings: Homo sapiens, 24-72 hrs
Experimental: (§2) Count and dispense 2,000-10,000 cells per well (100 μL volume) in black 96-well tissue culture microplate and let cells adhere overnight. Add compound dissolved in 100% DMSO to each well as needed and incubate cells in standard culture conditions for 24-72 hrs. Final DMSO concentration in each well should be 0.1-0.5%. At the desired time point, gently aspirate compound containing media and replace with PBS to wash. Repeat wash step for 2 total washes. Remove PBS and add 100 μL CellTiter-Fluor reagent (Promega) reagent to each well. Seal plate and incubate 1 hr at room temperature with orbital shaking. Analyze fluorescence using plate reader to quantify viable cells compared with vehicle (DMSO) control.

[7] = tested on: HPAF-II; test: Cell viability (CellTiter-Fluor), HPAF-II; type: cell-based; settings: Homo sapiens, 24-72 hrs
Experimental: as §2

[8] = tested on: KLE; test: Cell viability (CellTiter-Fluor), KLE; type: cell-based; settings: Homo sapiens, 24-72 hrs
Experimental: as §2

[9] = tested on: LS411N; test: Cell viability (CellTiter-Fluor), LS411N; type: cell-based; settings: Homo sapiens, LS-411N, 24-72 hrs
Experimental: as §2

[10] = tested on: MCF7; test: Cell viability (CellTiter-Fluor), MCF7; type: cell-based; settings: Homo sapiens, 24-72 hrs
Experimental: as §2

[11] = tested on: NCI-H1915; test: Cell viability (CellTiter-Fluor), NCI-H1915; type: cell-based; settings: 24-72 hrs
Experimental: as §2

[12] = tested on: HCC38; test: Cell viability (CellTiter-Fluor), HCC38; type: cell-based; settings: Homo sapiens, 24-72 hrs
Experimental: as §2

[13] = tested on: HEPG2; test: Cell viability (CellTiter-Fluor), HEPG2; type: cell-based; settings: Homo sapiens, 24-72 hrs
Experimental: as §2

[14] = tested on: KATO-III; test: Cell viability (CellTiter-Fluor), KATO-III; type: cell-based; settings: Homo sapiens, 24-72 hrs
Experimental: as §2

[15] = tested on: MS751; test: Cell viability (CellTiter-Fluor), MS751; type: cell-based; settings: 24-72 hrs
Experimental: as §2

[16] = tested on: T47D; test: Cell viability (CellTiter-Fluor), T47D; type: cell-based; settings: Homo sapiens, 24-72 hrs
Experimental: as §2

[17] = tested on: ALK; test: In vitro transcription-translation (IVTT) assay, ALK reporter; type: biochemical; settings: HeLa S3 lysate, sfGFP/mCherry ratio, 2 hrs at 30° C.
Outline: as §1

[18] = tested on: CCNTB1; test: In vitro transcription-translation (IVTT) assay, CCNTB1 reporter; type: biochemical; settings: HeLa S3 lysate, sfGFP/mCherry ratio
Outline: (§3)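 Cell-free HeLa S3 lysate reactions expressing sfGFP/mCherry reporter constructs ran 2 h at 30 °C with compound from half-log DMSO series (30 μM–0.1 μM as prepared), then were quenched with PBS. No-DNA background was subtracted, and the sfGFP/mCherry ratio was normalized to the no-drug control and fit for IC50.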

[19] = tested on: cGAS; test: In vitro transcription-translation (IVTT) assay, cGAS reporter; type: biochemical; settings: HeLa S3 lysate, sfGFP/mCherry ratio
Experimental: (§4) In vitro transcription-translation assay setup: Each assay includes a master mix containing lysate and shared components, a 96-well plate containing compound titrations for testing, a 96-well DNA plate with reporter constructs to be tested, 96-well skirted PCR plates, and 96-well flat-bottom, black, fluorescent assay plates. Reaction materials setup: (A) Master mix—15 mL conical tube (3 mL of HeLa S3 Lysate described above; 0.6 mL of ThermoFisher Accessory Proteins (#88882); 1.2 ml of ThermoFisher Reaction Mix (#88882); 0.54 mL of nuclease-free Water); (B) 96-Well Master Mix+Compound Plate (Half-log dilutions (30 μM−0.1 μM) of 4 compounds of interest are prepared in 100% DMSO); 96-Well DNA Plate (Five DNA constructs are plated into single columns within the plate. Row 1 of the column contains nuclease free H2O, all other wells contain 110 ng/μL plasmid DNA). Reactions are started by mixing 155 μL of master mix and 3.5 μL of compound serial dilutions, then 9.1 μL of master mix+compound mixture is aliquoted across 5 96-well plates. Reactions begin with final addition of 2 μL of DNA for a 11.1 μL reaction volume in each well. The entire plate is sealed, and incubated for 2 hrs at 30° C. After 2 hrs, quench the assay using 45 μL of PBS, and transfer 50 μL to a flat-bottom black microplate Quantify the sfGFP and mCherry signals from each well on each plate, taking 3 reads of each plate, and perform data analysis below.
(§5) In vitro transcription-translation assay data analysis: Each plate is read three times in channels for both sfGFP and mCherry signals. The average signal across these 3 reads is then calculated for further analysis. Control wells containing no DNA reporter are subtracted from reporter wells in the same column to remove auto-fluorescence of the lysate. Then, the ratio of sfGFP/mCherry is calculated per well, and these ratios are averaged across the triplicate experiments on the same plate. Finally, the ratio of each titration concentration is normalized to the no drug control to create the normalized stalling metric. The error on this measurement is determined by propagating error through the averaging and normalization steps. Values are plotted and fit for IC50 determination for each test sequence and titration of compound.

[20] = tested on: STING; test: In vitro transcription-translation (IVTT) assay, STING reporter; type: biochemical; settings: HeLa S3 lysate, sfGFP/mCherry ratio
Experimental: as §4, §5

[21] = tested on: JAK1; test: In vitro transcription-translation (IVTT) assay, JAK1 reporter; type: biochemical; settings: HeLa S3 lysate, sfGFP/mCherry ratio
Experimental: as §4, §5

[22] = tested on: NFKB1; test: In vitro transcription-translation (IVTT) assay, NFKB1 reporter; type: biochemical; settings: HeLa S3 lysate, sfGFP/mCherry ratio
Outline: as §3

[23] = IVTT assay, MYC reporter, normalized sfGFP/mCherry ratio, half-log dilutions 30 μM-0.1 μM
[24] = IVTT assay, read-out: MCL1 IC50

| SMILES | IC50 [1] [µM] | IC50 ([2]; sfGFP/mCherry ratio) [µM] | IC50 ([3]; 2 hrs at 30° C.) [µM] | IC50 ([4]; 2 hrs at 30° C.) [µM] | IC50 [5] [µM] | IC50 [6] [nM] | IC50 [7] [nM] | IC50 [8] [nM] | IC50 [9] [nM] | IC50 [10] [nM] | IC50 [11] [nM] | IC50 [12] [nM] | IC50 [13] [nM] | IC50 [14] [nM] | IC50 [15] [nM] | IC50 [16] [nM] | IC50 [2, 23] [µM] | IC50 ([3]; IVTT assay) [µM] | IC50 [4, 24] [µM] | IC50 [18] [µM] | other results |
| --- | --- | --- | --- | --- | --- | --- | --- | --- | --- | --- | --- | --- | --- | --- | --- | --- | --- | --- | --- | --- | --- |
| COc1ccc(C[C@H]2NC[C@H](O)[C@H]2OC(=O)NCCc2cn[nH]c2)cc1 [V187509, (2R,3S,4S)-4-hydroxy-2-[(4-methoxyphenyl)methyl]pyrrolidin-3-yl N-[2-(1H-pyrazol-4-yl)ethyl]carbamate] | < 10 | < 10 | < 10 | < 10 | < 10 | < 250 | 250 to 1000 | 250 to 1000 | 250 to 1000 | 250 to 1000 | 250 to 1000 | 250 to 1000 | 1000 to 4000 | 250 to 1000 | < 250 | 250 to 1000 |  |  |  |  |  |
| COc1ccc(C[C@H]2NC[C@H](O)[C@H]2OC(=O)NCc2ccccc2)cc1 [V187190, (2R,3S,4S)-4-hydroxy-2-[(4-methoxyphenyl)methyl]pyrrolidin-3-yl N-benzylcarbamate; trifluoroacetic acid] | < 10 | < 10 | < 10 | < 10 | < 10 | < 250 | 250 to 1000 | < 250 | < 250 | < 250 | < 250 | 250 to 1000 | < 250 | < 250 | < 250 | < 250 |  |  |  |  | IC50 [17]: < 10 µM |
| O=C(NCCOC(F)(F)F)O[C@@H]1[C@@H](O)CN[C@@H]1Cc1ccc(-c2cnco2)cc1 [V192265, (2R,3S,4S)-4-hydroxy-2-{[4-(1,3-oxazol-5-yl)phenyl]methyl}pyrrolidin-3-yl N-[2-(trifluoromethoxy)ethyl]carbamate] |  |  |  |  |  |  |  |  |  |  |  |  |  |  |  |  | < 10 | < 10 | < 10 | < 10 | IC50 [19]: < 10 µM; IC50 [20]: < 10 µM; IC50 [21]: < 10 µM; IC50 [22]: < 10 µM |
| COc1ccc(C[C@H]2NC[C@H](O)[C@H]2OC(=O)NCc2ccncc2)cc1 [V187987, (2R,3S,4S)-4-hydroxy-2-[(4-methoxyphenyl)methyl]pyrrolidin-3-yl N-(pyridin-4-ylmethyl)carbamate] | < 10 | < 10 | < 10 | < 10 |  | < 250 | 250 to 1000 | 250 to 1000 | < 250 | < 250 | < 250 | 250 to 1000 | 1000 to 4000 | 250 to 1000 | 250 to 1000 | < 250 |  |  |  |  |  |
| O=C(NCCC1CCNCC1)O[C@@H]1[C@@H](O)CN[C@@H]1Cc1ccc(-c2cnco2)cc1 [V192049, (2R,3S,4S)-4-hydroxy-2-{[4-(1,3-oxazol-5-yl)phenyl]methyl}pyrrolidin-3-yl N-[2-(piperidin-4-yl)ethyl]carbamate] |  |  |  |  |  |  |  |  |  |  |  |  |  |  |  |  | < 10 | < 10 | < 10 | < 10 | IC50 [19]: < 10 µM; IC50 [20]: < 10 µM; IC50 [21]: < 10 µM; IC50 [22]: < 10 µM |
